Where “and” joins values, the source holds several entries; their conditions need not be identical. Identical values can stand only once. Where only a bound is given, the exact number is not on record here.

The results in this text go back to patent US10077284B2, “UBA5 inhibitors” (THE GOVERNING COUNCIL OF THE UNIVERSITY OF TORONTO, priority 2014, dated 2018).

The target of this test is T1, Ub activating enzyme (UAE) (Homo sapiens, UniProt P22314).
T1 construct: purchased Boston Biochem
T1 sequence (P22314 1-1058): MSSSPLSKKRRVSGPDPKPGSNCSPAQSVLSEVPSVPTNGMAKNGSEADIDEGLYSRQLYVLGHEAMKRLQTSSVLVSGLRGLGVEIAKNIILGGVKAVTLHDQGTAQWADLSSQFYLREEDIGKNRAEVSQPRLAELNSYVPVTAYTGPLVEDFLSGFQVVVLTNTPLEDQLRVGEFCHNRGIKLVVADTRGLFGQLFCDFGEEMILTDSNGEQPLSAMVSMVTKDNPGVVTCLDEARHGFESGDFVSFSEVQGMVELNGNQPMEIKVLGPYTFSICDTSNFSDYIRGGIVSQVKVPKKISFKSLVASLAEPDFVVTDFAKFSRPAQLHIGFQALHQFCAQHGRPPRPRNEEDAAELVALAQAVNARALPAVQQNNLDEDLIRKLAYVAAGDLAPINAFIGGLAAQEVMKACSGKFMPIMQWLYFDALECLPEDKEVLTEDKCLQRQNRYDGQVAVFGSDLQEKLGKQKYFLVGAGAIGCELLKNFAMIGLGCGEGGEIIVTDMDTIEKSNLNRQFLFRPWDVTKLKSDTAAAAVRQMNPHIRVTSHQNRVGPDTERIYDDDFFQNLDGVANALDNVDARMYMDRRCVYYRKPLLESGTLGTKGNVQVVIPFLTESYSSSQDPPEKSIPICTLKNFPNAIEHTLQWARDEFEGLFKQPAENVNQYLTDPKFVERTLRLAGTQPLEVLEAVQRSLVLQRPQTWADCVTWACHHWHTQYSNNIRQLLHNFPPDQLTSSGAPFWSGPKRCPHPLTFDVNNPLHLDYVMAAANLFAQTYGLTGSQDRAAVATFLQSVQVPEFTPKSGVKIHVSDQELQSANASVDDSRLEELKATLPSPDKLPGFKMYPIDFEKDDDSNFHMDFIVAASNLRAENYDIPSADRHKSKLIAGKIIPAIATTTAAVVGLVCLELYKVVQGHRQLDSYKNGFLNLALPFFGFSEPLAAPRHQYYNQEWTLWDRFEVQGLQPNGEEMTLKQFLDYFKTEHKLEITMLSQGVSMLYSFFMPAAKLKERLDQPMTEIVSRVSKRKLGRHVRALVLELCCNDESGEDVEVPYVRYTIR
Briefly: UAE transthiolation assay (Ub transfer to His6-UbcH6). In kind it is biochemical.

Experimental: Initial rates were recorded over 30 second time intervals from 0 to 2.5 min (normal kinetics) or 0 to 5 min (inhibition kinetics). Reactions were initiated by the addition of ATP and stopped using 4× Laemmli sample buffer (BioRad). The generated protein conjugates were separated on a 10% non-degenerating SDS-polyacrylamide gel (4-15% gels were used for the UAE transthiolaton assay), followed by Western blot analysis, with the exception of GST-UBA5 where protein bands were detected using Coomassie™ Brilliant Blue R-250 staining or Stain-Free gel imaging for the enzymatic assays (Bio-Rad). Transfers for the UAE and NAE immunoblots were performed using nitrocellulose membranes and blocking and blotting was performed as described above with cellular protein extracts. The His6-tagged Ub-UBCH6 complex was detected using an anti-His mouse monoclonal primary antibody (1:500, abcam). A rabbit anti-NEDD8 polyclonal primary antibody (1:500, BostonBiochem) was used for the detection of the E2-NEDD8 complexes. […] Inhibitory data was fit to a dose-response curve (Y=Bottom+(Top−Bottom)/(1+10^(X-Log IC50))) using GraphPad Prism 6.

Broadly, the IC50 is the concentration at which inhibition is half-maximal. Low values mean higher potency, high ones lower potency. `Nc1ncnc2c1ncn2[C@@H]1O[C@H](C(=O)NCCCCCC(=O)N2CCNCCNCCNCC2)[C@@H](O)[C@H]1O.O=S(=O)([O-])C(F)(F)F.O=S(=O)([O-])C(F)(F)F.[Zn+2]` [Compound 1.5.Zn, (2S,3S,4R,5R)—N-(6-(1,4,7,10-tetraazacyclododecan-1-yl)-6-oxohexyl)-5-(6-amino-9H-purin-9-yl)-3,4-dihydroxytetrahydrofuran-2-carboxamide zinc trifluoromethanesulfonate]: the IC50 (n=3-6) was 76.7 µM and 78.5 µM. For the same compound, the “selectivity for UBA5 over UAE” value (ratio of IC50) is > 20 fold and ~20 fold.
